Reference: ChEMBL document CHEMBL1154043, “Synthesis and structure-activity relationship of a novel series of heterocyclic sulfonamide gamma-secretase inhibitors” (Bioorg Med Chem, 2009)
The source made the active and inactive calls. No cut-off for these calls is given here.

Key:
[1] = Inhibition of gamma-secretase-mediated mouse notch cleavage expressed in CHOK1 cells assessed as secreted alkaline phosphatase level after 48 hrs by chemiluminescence assay; assay type: cell-based; details: CHO-K1, 48 h
[2] = Selectivity ratio of EC50 for gamma-secretase-mediated mouse notch cleavage to EC50 for gamma-secretase-mediated amyloid beta40 production
Gamma-secretase = experiment: (§1) Displacement of [3H](S)-5-chloro-N-(3-ethyl-1-hydroxypentan-2-yl)thiophene-2-sulfonamide from gamma secretase in human SH-SY5Y cells after 1 hr; assay type: cell-based
[3] = Inhibition of gamma-secretase assessed as effect on APP level after 24 hrs by double sandwich ELISA
[4] = Inhibition of gamma-secretase-mediated cleavage of human APP expressed in CHO cells assessed as reduction in amyloid beta40 production after 24 hrs by double sandwich ELISA; assay type: cell-based
[5] = Inhibition of gamma-secretase assessed as increase in beta-C-terminal fragment level after 24 hrs by double sandwich ELISA
CHO = experiment: (§2) Inhibition of gamma-secretase-mediated cleavage of human APP expressed in CHO cells assessed as reduction in amyloid beta42 production after 24 hrs by double sandwich ELISA; assay type: cell-based
[6] = biological target: Gamma-secretase (Homo sapiens) (UniProt Q96BI3+Q9NZ42+Q8WW43+P49768+Q92542+P49810); experiment: as §1; assay type: cell-based
[7] = as §2; assay type: cell-based
[8] = Selectivity for gamma-secretase-mediated APP cleavage over gamma-secretase-mediated notch processing

| EC50 [1] | Selectivity ratio [2] | IC50 (Gamma-secretase) | Activity [3] | EC50 [4] | Activity [5] | Activity [6] | EC50 [7] | Selectivity ratio [8] | Compound | Activity (CHO) |
| --- | --- | --- | --- | --- | --- | --- | --- | --- | --- | --- |
| 1800 nM | 20 | 154 nM | Active | 92 nM | Active | – | – | – | CCC(CC)[C@H](NS(=O)(=O)c1ccc(Cl)s1)c1ccnn1Cc1ccc(O)cc1 | Active |
| – | – | – | – | 29 nM | – | Active | 29 nM | – | CCC(CC)[C@@H](CO)NS(=O)(=O)c1ccc(Cl)s1 [GSI-136] | – |
| – | – | – | – | – | – | – | – | 15 | C[C@H](c1ccc(F)cc1CCCC(=O)O)N(c1cc(F)ccc1F)S(=O)(=O)c1ccc(Cl)cc1 | – |
